# Laboratory results published in PubChem BioAssay AID1963833 (Molecular Pharmacology Branch, DTP, NCI, 2024).
# System: 883617-216-R-J1-PDC complex spheroid viability
# Assay: Anticancer human tumor 883617-216-R-J1-PDC patient-derived bladder carcinoma cell line growth inhibition [POLQ]
# Conditions: for IC50: curve of first compound; for viability, T/C: stronger effect = lower value
# Procedure: Multicellular complex tumor spheroid response to Polymerase (POL) inhibitors (novobiocin, ART-558, RP6685) in combination with a variety of drugs and investigational agents in selected tumor cell lines
# The POL inhibitors (novobiocin, ART-558, and RP6685) were evaluated both individually and in combination with standard of care and investigational anticancer small molecules within a complex spheroid model of solid tumors. . Complex spheroids include a stromal component modeled by human endothelial cells (HUVEC) and fibroblasts modeled by human mesenchymal stem cells (MSCs). The concentration ranges selected for each drug and investigational agent were based upon clinically achievable concentrations if the clinical Cmax of the agent was known.
# Compounds. The drugs and investigational agents: novobiocin (NSC847541), ART-558 (NSC835418), RP-6685 (NSC848927), peposertib (NSC802822), ceralasertib (NSC780249), elimusertib (NSC800525), camonsertib (NSC841442), AZD-1390 (NSC803789), olaparib (NSC753686), talazoparib (NSC767125), rucaparib (NSC756644), sotorasib (NSC818433), MRTX-1133 (NSC836407), SN-38 (NSC673596), topotecan (NSC609699), epotoside (NSC141540), doxorubicin (NSC123127), gemcitabine (NSC613327), 5-fluorouracil (NSC19893), paclitaxel (NSC125973), vemurafenib (NSC761431), MSA-2 (NSC828583), SN-011 (NSC837082), adavosertib (NSC754352), prexasertib (NSC758257), carboplatin (NSC241240) and oxaliplatin (NSC266046), were obtained from the National Cancer Institute (NCI) Developmental Therapeutics Program Chemical Repository (21). The FDA-approved anticancer drug set is available from the Developmental Therapeutics Program at https://dtp.cancer.gov/organization/dscb/obtaining/. […] The stock solutions were prepared in dimethyl sulfoxide (DMSO, Sigma-Aldrich, St. Louis, MO, cat. D2650), except for the platinum compounds which were prepared in saline (Quality Biological, Gaithersburg, MD, cat. 114-055-101), at 800-fold the tested concentration and stored at -70 degrees C prior to their use. All drugs and investigational agents were tested over a range starting from a high concentration at or near the clinical Cmax and decreasing in half-log increments. If the clinical Cmax for an agent had not been determined, the highest concentration tested was 10 microM, except for SN-38, which was tested at a high concentration of 1 microM.
# Cell Culture. All cells were maintained in an incubator at 37 degrees C and 5% CO2 with 95% humidity. The PDC lines were cultured according to standard operating procedures established by the NCI PDMR (https://pdmr.cancer.gov). Table 3 of the manuscript, lists the cell lines along with the number of the three cell types plated to form the mct-spheroids and media for tumor cell growth. After thawing, all PDC lines, except 997537-175-T-J1-PDC and 415267-285-R-J2-PDC, were cultured in Matrigel-coated flasks prepared with a working solution of 1X Ham's F-12 nutrient mix, without supplementation (Thermo Fisher Scientific, cat. 11765054), 100 U/mL penicillin-streptomycin (Thermo Fisher Scientific, cat. 15140122), and 2.5% Matrigel (Corning Inc., Corning, NY, cat. 354248) for the first three passages. The two PDC lines 997537-175-T-J1-PDC and 415267-285-R-J2-PDC were cultured on uncoated flasks. The 857933-349-R-J2-PDC line was cultured in 6C/Colon 1B media containing advanced DMEM/F-12 (Thermo Fisher Scientific, cat. 12634028), 10 mM HEPES (Thermo Fisher Scientific, cat. 15630080), 1X GlutaMAX supplement (Thermo Fisher Scientific, cat. 35050061), 0.1 mg/mL primocin (InvivoGen, San Diego, CA, cat. ant-pm-2), 10% defined fetal bovine serum, heat inactivated (HyClone Laboratories Inc., Logan, UT, cat. SH30070.03HI), 50% L-WRN conditioned media (ATCC, cat. CRL-3276), 1.25 mM N-Acetyl-L-cysteine (Sigma-Aldrich, cat. A9165), 10 mM nicotinamide (Sigma-Aldrich, cat. N0636), 1X B-27 supplement (Thermo Fisher Scientific, cat. 17504044), 1X N-2 supplement (Thermo Fisher Scientific, cat. […]
# [1] = second compound 0.0316 µM, first compound 0.0316 µM
# [2] = second compound 0.0316 µM, first compound 0.1 µM
# [3] = second compound 0.0316 µM, first compound 0.316 µM
# [4] = second compound 0.0316 µM, first compound 1 µM
# [5] = second compound 0.1 µM, first compound 0.0316 µM
# [6] = second compound 0.1 µM, first compound 0.1 µM
# [7] = second compound 0.1 µM, first compound 0.316 µM
# [8] = second compound 0.1 µM, first compound 1 µM
# [9] = second compound 0.316 µM, first compound 0.0316 µM
# [10] = second compound 0.316 µM, first compound 0.1 µM
# [11] = second compound 0.316 µM, first compound 0.316 µM
# [12] = second compound 0.316 µM, first compound 1 µM
# [13] = second compound 1 µM, first compound 0.0316 µM
# [14] = second compound 1 µM, first compound 0.1 µM
# [15] = second compound 1 µM, first compound 0.316 µM
# [16] = second compound 1 µM, first compound 1 µM
# [17] = second compound 3.16 µM, first compound 0.0316 µM
# [18] = second compound 3.16 µM, first compound 0.1 µM
# [19] = second compound 3.16 µM, first compound 0.316 µM
# [20] = second compound 3.16 µM, first compound 1 µM
# [21] = second compound 10 µM, first compound 0.0316 µM
# [22] = second compound 10 µM, first compound 0.1 µM
# [23] = second compound 10 µM, first compound 0.316 µM
# [24] = second compound 10 µM, first compound 1 µM
# 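Also: spheroids exposed to compounds for seven days before readout.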
# 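For viability, T/C in this document: 100% = DMSO vehicle control viability.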
smiles,measurement,setting,value
COc1cccc(OCCCN)c1-c1cc(Nc2cnc(C#N)cn2)n[nH]1 + COC1C(OC(N)=O)C(O)C(Oc2ccc3c(O)c(NC(=O)c4ccc(O)c(CC=C(C)C)c4)c(=O)oc3c2C)OC1(C)C,IC50,second compound 0.0316 µM,38.9 nM
same,IC50,second compound 0.1 µM,33.2 nM
same,IC50,second compound 0.316 µM,58.9 nM
same,IC50,second compound 1 µM,24.4 nM
same,IC50,second compound 3.16 µM,21.5 nM
same,IC50,second compound 10 µM,36.5 nM
same,"viability, T/C","second compound 0.0316 µM, first compound 0.00316 µM",83.3%
same,"viability, T/C","second compound 0.0316 µM, first compound 0.01 µM",73.8%
same,"viability, T/C",[1],46.9%
same,"viability, T/C",[2],42.4%
same,"viability, T/C",[3],28.1%
same,"viability, T/C",[4],23.4%
same,"viability, T/C","second compound 0.1 µM, first compound 0.00316 µM",91%
same,"viability, T/C","second compound 0.1 µM, first compound 0.01 µM",76.8%
same,"viability, T/C",[5],46.5%
same,"viability, T/C",[6],40.4%
same,"viability, T/C",[7],27.6%
same,"viability, T/C",[8],27.1%
same,"viability, T/C","second compound 0.316 µM, first compound 0.00316 µM",85.6%
same,"viability, T/C","second compound 0.316 µM, first compound 0.01 µM",67.3%
same,"viability, T/C",[9],66.3%
same,"viability, T/C",[10],37.6%
same,"viability, T/C",[11],32.5%
same,"viability, T/C",[12],30%
same,"viability, T/C","second compound 1 µM, first compound 0.00316 µM",90.8%
same,"viability, T/C","second compound 1 µM, first compound 0.01 µM",69.9%
same,"viability, T/C",[13],42.6%
same,"viability, T/C",[14],35.4%
same,"viability, T/C",[15],27.7%
same,"viability, T/C",[16],27.2%
same,"viability, T/C","second compound 3.16 µM, first compound 0.00316 µM",88.2%
same,"viability, T/C","second compound 3.16 µM, first compound 0.01 µM",62.2%
same,"viability, T/C",[17],41.4%
same,"viability, T/C",[18],37.5%
same,"viability, T/C",[19],39.6%
same,"viability, T/C",[20],27.4%
same,"viability, T/C","second compound 10 µM, first compound 0.00316 µM",92.2%
same,"viability, T/C","second compound 10 µM, first compound 0.01 µM",75.2%
same,"viability, T/C",[21],50.9%
same,"viability, T/C",[22],36.2%
same,"viability, T/C",[23],35%
same,"viability, T/C",[24],25.7%
COc1cccc2c1C(=O)c1c(O)c3c(c(O)c1C2=O)CC(O)(C(=O)CO)CC3OC1CC(N)C(O)C(C)O1 (centres undefined) + COC1C(OC(N)=O)C(O)C(Oc2ccc3c(O)c(NC(=O)c4ccc(O)c(CC=C(C)C)c4)c(=O)oc3c2C)OC1(C)C,IC50,second compound 0.0316 µM,186 nM
same,IC50,second compound 0.1 µM,320 nM
same,IC50,second compound 0.316 µM,251 nM
same,IC50,second compound 1 µM,214 nM
same,IC50,second compound 3.16 µM,308 nM
same,IC50,second compound 10 µM,151 nM
same,"viability, T/C",[1],62.3%
same,"viability, T/C",[2],49.8%
same,"viability, T/C",[3],45.3%
same,"viability, T/C",[4],4.36%
same,"viability, T/C","second compound 0.0316 µM, first compound 3.16 µM",0.76%
same,"viability, T/C","second compound 0.0316 µM, first compound 10 µM",0.26%
same,"viability, T/C",[5],67.3%
same,"viability, T/C",[6],59.6%
same,"viability, T/C",[7],50.8%
same,"viability, T/C",[8],6%
same,"viability, T/C","second compound 0.1 µM, first compound 3.16 µM",0.55%
same,"viability, T/C","second compound 0.1 µM, first compound 10 µM",0.43%
same,"viability, T/C",[9],70.4%
same,"viability, T/C",[10],58.2%
same,"viability, T/C",[11],47.5%
same,"viability, T/C",[12],6.74%
same,"viability, T/C","second compound 0.316 µM, first compound 3.16 µM",1.39%
same,"viability, T/C","second compound 0.316 µM, first compound 10 µM",1.91%
same,"viability, T/C",[13],73.9%
same,"viability, T/C",[14],55%
same,"viability, T/C",[15],45%
same,"viability, T/C",[16],3.27%
same,"viability, T/C","second compound 1 µM, first compound 3.16 µM",0.35%
same,"viability, T/C","second compound 1 µM, first compound 10 µM",1.2%
same,"viability, T/C",[17],61.1%
same,"viability, T/C",[18],48.6%
same,"viability, T/C",[19],50%
same,"viability, T/C",[20],4.18%
same,"viability, T/C","second compound 3.16 µM, first compound 3.16 µM",1.17%
same,"viability, T/C","second compound 3.16 µM, first compound 10 µM",0.37%
same,"viability, T/C",[21],59.5%
same,"viability, T/C",[22],50.9%
same,"viability, T/C",[23],41.5%
same,"viability, T/C",[24],5%
same,"viability, T/C","second compound 10 µM, first compound 3.16 µM",0.8%
same,"viability, T/C","second compound 10 µM, first compound 10 µM",0.3%
